Where a name gives a salt, the structure may show the parent alone. Marks after values point to notes of the source that are not given here. Values belong to the compound of their own block, whether it stands above or below them.
Key:
[1] = Stability studies (storage at 60 °C in closed bottles or at 40 °C / 75 % RH in an open bottle; related substances by HPLC); settings: for Related Substances 2 W 40°C/75 % RH open / Related Substances 2 W 60°C closed: 2 weeks, 20160 min; for Related Substances 4 w 40°C/75 % RH closed / Related Substances 4 w 40°C/75 % RH open / Related Substances 4 w 60°C Closed bottle: 4 weeks, 40320 min; for Related Substances 12 weeks 40°C/75 % RH closed bottle / Related Substances 12 weeks 40°C/75 % RH open bottle: 120960 min; for Initial Related Substances: before storage
[2] = Hygroscopicity studies (water content after storage at 43 %, 75 % and 93 % relative humidity); format: physicochemical; settings: for change during the hygroscopicity studies: 43 %, 75 % and 93 % relative humidity, confirmed by DSC of samples kept at 93 % relative humidity for 2 weeks; for Initial water content: initial sample; for Hygroscopicity 2 weeks 43 % rh: 2 weeks at 43 % rh; for Hygroscopicity 2 weeks 43 % rh / Hygroscopicity 2 weeks 75 % rh / Hygroscopicity 2 weeks 93 % rh: % Equilibrium moisture content, ss = semi solid state of sample, β = solid first changed into liquid and solidified again; for Hygroscopicity 2 weeks 75 % rh: 2 weeks at 75 % rh; for Hygroscopicity 2 weeks 93 % rh: 2 weeks at 93 % rh
Excerpt: The salts of the present invention and the free base were studied under three different humidity conditions (43 % relative humidity, 75 % relative humidity, and 93 % relative humidity).

[3] = closed bottle, four weeks at 60 °C
[4] = closed bottle, two weeks at 60 °C
[5] = open bottle, twelve weeks at 40 °C and 75 % RH

Structure (SMILES): N[C@@H](CC(=O)N1CCn2c(nnc2C(F)(F)F)C1)Cc1cc(F)c(F)cc1F [A: Phosphate, Sitagliptin Phosphate]
Related Substances 2 W 40°C/75 % RH open [1]: 0.21%
Related Substances 2 W 60°C closed [1]: 0.50%
Related Substances 4 w 40°C/75 % RH closed [1]: 0.31%
Related Substances 4 w 40°C/75 % RH open [1]: 0.16%
Related Substances 4 w 60°C Closed bottle ([1]; closed bottle): 0.38%
Related Substances 12 weeks 40°C/75 % RH closed bottle ([1]; closed bottle): 0.57%
Related Substances 12 weeks 40°C/75 % RH open bottle ([1]; open bottle): 0.37%
stability (degradation, related substances by HPLC) [1, 3]: stable
stability (degradation, related substances by HPLC) [1, 4]: stable
Initial Related Substances [1]: 0.39%
stability (degradation, related substances by HPLC) [1, 5]: stable
Hygroscopicity (water content) ([2]; 2 weeks 43 % rh): 0.41%
Hygroscopicity (water content) ([2]; 2 weeks 75 % rh): 0.48%
Hygroscopicity (water content) ([2]; 2 weeks 93 % rh): 0.82%
change during the hygroscopicity studies [2]: did not show much change
Initial water content ([2]; before humidity storage): 0.46%

Structure (SMILES): N[C@@H](CC(=O)N1CCn2c(nnc2C(F)(F)F)C1)Cc1cc(F)c(F)cc1F [B: HCl I, Sitagliptin Hydrochloride Form I]
Related Substances 2 W 40°C/75 % RH open [1]: 0.05%
Related Substances 2 W 60°C closed [1]: 0.01%
Related Substances 4 w 40°C/75 % RH closed [1]: 0.01%
Related Substances 4 w 40°C/75 % RH open [1]: 0.01%
Related Substances 4 w 60°C Closed bottle ([1]; closed bottle): 0.01%
Related Substances 12 weeks 40°C/75 % RH closed bottle ([1]; closed bottle): 0.14%
Related Substances 12 weeks 40°C/75 % RH open bottle ([1]; open bottle): 0.15%
stability (degradation, related substances by HPLC) ([1]; closed bottle, four weeks at 60 °C, listed as HCl form I): stable
stability (degradation, related substances by HPLC) ([1]; closed bottle, two weeks at 60 °C, listed as HCl form I): stable
Initial Related Substances [1]: 0.04%
stability (degradation, related substances by HPLC) ([1]; open bottle, twelve weeks at 40 °C and 75 % RH, listed as HCl form I): stable
Hygroscopicity (water content) ([2]; 2 weeks 43 % rh): 3.86%
Hygroscopicity (water content) ([2]; 2 weeks 75 % rh): 4.36%
Hygroscopicity (water content) ([2]; 2 weeks 93 % rh): 4.49%
Initial water content ([2]; before humidity storage): 1.4%

Structure (SMILES): N[C@@H](CC(=O)N1CCn2c(nnc2C(F)(F)F)C1)Cc1cc(F)c(F)cc1F [Base, 7-[(3R)-3-amino-1-oxo-4-(2,4,5-trifluorophenyl)butyl)-5,6,7,8-tetrahydro-3-(trifluoromethyl)-1,2,4-triazolo[4,3-a]pyrazine, reference compound]
Related Substances 2 W 40°C/75 % RH open [1]: 0.27%
Related Substances 2 W 60°C closed [1]: 0.37%
Related Substances 4 w 40°C/75 % RH closed [1]: 0.46%
Related Substances 4 w 40°C/75 % RH open [1]: 0.39%
Related Substances 4 w 60°C Closed bottle ([1]; closed bottle): 0.46%
Related Substances 12 weeks 40°C/75 % RH closed bottle ([1]; closed bottle): 0.52%
Related Substances 12 weeks 40°C/75 % RH open bottle ([1]; open bottle): 0.39%
stability (degradation, related substances by HPLC) ([1]; closed bottle, four weeks at 60 °C, listed as free base): stable
stability (degradation, related substances by HPLC) ([1]; closed bottle, two weeks at 60 °C, listed as free base): stable
Initial Related Substances [1]: 0.36%
stability (degradation, related substances by HPLC) ([1]; open bottle, twelve weeks at 40 °C and 75 % RH, listed as free base): stable
Hygroscopicity (water content) ([2]; 2 weeks 43 % rh): 0.19%
Hygroscopicity (water content) ([2]; 2 weeks 75 % rh): 0.22%
Hygroscopicity (water content) ([2]; 2 weeks 93 % rh): 0.3%
change during the hygroscopicity studies ([2]; listed as free base): did not show much change
Initial water content ([2]; before humidity storage): 0.19%

Structure (SMILES): N[C@@H](CC(=O)N1CCn2c(nnc2C(F)(F)F)C1)Cc1cc(F)c(F)cc1F [C: Lactate, Sitagliptin Lactate]
Related Substances 2 W 40°C/75 % RH open [1]: 0.34%
Related Substances 2 W 60°C closed [1]: 0.43%
Related Substances 4 w 40°C/75 % RH closed [1]: 0.28%
Related Substances 4 w 40°C/75 % RH open [1]: 0.33%
Related Substances 4 w 60°C Closed bottle ([1]; closed bottle): 0.49%
Related Substances 12 weeks 40°C/75 % RH closed bottle ([1]; closed bottle): 0.56%
Related Substances 12 weeks 40°C/75 % RH open bottle ([1]; open bottle): 0.59%
stability (degradation, related substances by HPLC) [1, 3]: showed a degradation
stability (degradation, related substances by HPLC) [1, 4]: degradation was observed
Initial Related Substances [1]: 0.16%
stability (degradation, related substances by HPLC) [1, 5]: shows degradation
Hygroscopicity (water content) ([2]; 2 weeks 43 % rh): 0.54%
Hygroscopicity (water content) ([2]; 2 weeks 75 % rh): 0.5%
Hygroscopicity (water content) ([2]; 2 weeks 93 % rh): 28.77 * %
Initial water content ([2]; before humidity storage): 0.51%

Structure (SMILES): N[C@@H](CC(=O)N1CCn2c(nnc2C(F)(F)F)C1)Cc1cc(F)c(F)cc1F [E: Sulfate I, Sitagliptin Sulfate Form I]
Related Substances 2 W 40°C/75 % RH open [1]: 0.10%
Related Substances 2 W 60°C closed [1]: 0.08%
Related Substances 4 w 40°C/75 % RH closed [1]: 0.02%
Related Substances 4 w 40°C/75 % RH open [1]: 0.06%
Related Substances 4 w 60°C Closed bottle ([1]; closed bottle): 0.02%
Related Substances 12 weeks 40°C/75 % RH closed bottle ([1]; closed bottle): 0.03%
Related Substances 12 weeks 40°C/75 % RH open bottle ([1]; open bottle): 0.08%
stability (degradation, related substances by HPLC) ([1]; closed bottle, four weeks at 60 °C, listed as sulfate (solvated)): stable
stability (degradation, related substances by HPLC) ([1]; closed bottle, two weeks at 60 °C, listed as sulfate (solvated)): stable
Initial Related Substances [1]: 0.08%
Hygroscopicity (water content) ([2]; 2 weeks 43 % rh): 1.12%
Hygroscopicity (water content) ([2]; 2 weeks 75 % rh): 1.0%
Hygroscopicity (water content) ([2]; 2 weeks 93 % rh): 2.81%
Initial water content ([2]; before humidity storage): 0.69%

Structure (SMILES): N[C@@H](CC(=O)N1CCn2c(nnc2C(F)(F)F)C1)Cc1cc(F)c(F)cc1F [H: Glycolate]
Related Substances 2 W 40°C/75 % RH open [1]: 0.24%
Related Substances 2 W 60°C closed [1]: 1.81%
Related Substances 4 w 40°C/75 % RH closed [1]: 0.49%
Related Substances 4 w 40°C/75 % RH open [1]: 0.61%
Related Substances 4 w 60°C Closed bottle ([1]; closed bottle): 4.06%
Related Substances 12 weeks 40°C/75 % RH closed bottle ([1]; closed bottle): 1.09%
Related Substances 12 weeks 40°C/75 % RH open bottle ([1]; open bottle): 0.99%
Initial Related Substances [1]: 0.05%
Hygroscopicity 2 weeks 43 % rh [2]: 2.24 ss %
Hygroscopicity 2 weeks 75 % rh [2]: β 4.81%
Hygroscopicity 2 weeks 93 % rh [2]: 24.85** %
Initial water content ([2]; before storage): 1.039%

Structure (SMILES): N[C@@H](CC(=O)N1CCn2c(nnc2C(F)(F)F)C1)Cc1cc(F)c(F)cc1F [J: Mesylate II]
Hygroscopicity 2 weeks 43 % rh [2]: 2.58%
Hygroscopicity 2 weeks 75 % rh [2]: 2.94%
Hygroscopicity 2 weeks 93 % rh [2]: 3.23%
Initial water content ([2]; before storage): 1.47%

Structure (SMILES): N[C@@H](CC(=O)N1CCn2c(nnc2C(F)(F)F)C1)Cc1cc(F)c(F)cc1F [K: Mesylate I]
Hygroscopicity 2 weeks 43 % rh [2]: 1.13%
Hygroscopicity 2 weeks 75 % rh [2]: 0.49%
Hygroscopicity 2 weeks 93 % rh [2]: 0.96%
Initial water content ([2]; before storage): 0.68%

Structure (SMILES): N[C@@H](CC(=O)N1CCn2c(nnc2C(F)(F)F)C1)Cc1cc(F)c(F)cc1F [M: Phosphate H2O]
Related Substances 2 W 40°C/75 % RH open [1]: 0.10%
Related Substances 2 W 60°C closed [1]: 0.12%
Related Substances 4 w 40°C/75 % RH closed [1]: 0.08%
Related Substances 4 w 40°C/75 % RH open [1]: 0.09%
Related Substances 4 w 60°C Closed bottle ([1]; closed bottle): 0.06%
Related Substances 12 weeks 40°C/75 % RH closed bottle ([1]; closed bottle): 0.09%
Related Substances 12 weeks 40°C/75 % RH open bottle ([1]; open bottle): 0.12%
Initial Related Substances [1]: 0.08%

Structure (SMILES): N[C@@H](CC(=O)N1CCn2c(nnc2C(F)(F)F)C1)Cc1cc(F)c(F)cc1F [N: Mesylate II]
Related Substances 2 W 40°C/75 % RH open [1]: 0.16%
Related Substances 2 W 60°C closed [1]: 0.16%
Related Substances 4 w 40°C/75 % RH closed [1]: 0.08%
Related Substances 4 w 40°C/75 % RH open [1]: 0.08%
Related Substances 4 w 60°C Closed bottle ([1]; closed bottle): 0.12%
Related Substances 12 weeks 40°C/75 % RH closed bottle ([1]; closed bottle): 0.07%
Related Substances 12 weeks 40°C/75 % RH open bottle ([1]; open bottle): 0.11%
Initial Related Substances [1]: 0.11%
Hygroscopicity 2 weeks 43 % rh [2]: 2.89%
Hygroscopicity 2 weeks 75 % rh [2]: 3.37%
Hygroscopicity 2 weeks 93 % rh [2]: 4.04%
Initial water content ([2]; before storage): 2.08%

Continued, values first:

Hygroscopicity 2 weeks 43 % rh [2]: 0.32%
Hygroscopicity 2 weeks 75 % rh [2]: 0.44%
Hygroscopicity 2 weeks 93 % rh [2]: 0.83%
Initial water content ([2]; before storage): 0.27%
Structure (SMILES): N[C@@H](CC(=O)N1CCn2c(nnc2C(F)(F)F)C1)Cc1cc(F)c(F)cc1F [Q : HCl II]

Related Substances 2 W 40°C/75 % RH open [1]: 0.36%
Related Substances 2 W 60°C closed [1]: 0.23%
Related Substances 4 w 40°C/75 % RH closed [1]: 0.30%
Related Substances 4 w 40°C/75 % RH open [1]: 0.53%
Related Substances 4 w 60°C Closed bottle ([1]; closed bottle): 0.30%
Related Substances 12 weeks 40°C/75 % RH closed bottle ([1]; closed bottle): 0.34%
Related Substances 12 weeks 40°C/75 % RH open bottle ([1]; open bottle): 0.44%
Initial Related Substances [1]: 0.20%
Structure (SMILES): N[C@@H](CC(=O)N1CCn2c(nnc2C(F)(F)F)C1)Cc1cc(F)c(F)cc1F [Q: HCl II]

stability (degradation, related substances by HPLC) [1, 4]: stable
Structure (SMILES): N[C@@H](CC(=O)N1CCn2c(nnc2C(F)(F)F)C1)Cc1cc(F)c(F)cc1F [maleate (non solvated), Sitagliptin Maleate Form II]

stability (degradation, related substances by HPLC) [1, 4]: degradation was observed
Structure (SMILES): N[C@@H](CC(=O)N1CCn2c(nnc2C(F)(F)F)C1)Cc1cc(F)c(F)cc1F [maleate (solvated), Sitagliptin Maleate Form I]

stability (degradation, related substances by HPLC) [1, 3]: showed a degradation
change during the hygroscopicity studies [2]: did not show much change
Structure (SMILES): N[C@@H](CC(=O)N1CCn2c(nnc2C(F)(F)F)C1)Cc1cc(F)c(F)cc1F [maleate, sitagliptin maleate]

stability (degradation, related substances by HPLC) [1, 4]: stable
change during the hygroscopicity studies [2]: did not show much change
Structure (SMILES): N[C@@H](CC(=O)N1CCn2c(nnc2C(F)(F)F)C1)Cc1cc(F)c(F)cc1F [phosphate monohydrate, sitagliptin dihydrogenphosphate, reference compound]

Reference: patent EP2915814A2, “Crystalline salts of sitagliptin” (priority 2008, dated 2010)
